Reference: patent publication US11279703B2, “Fused pyrimidine compounds as BRD4 and JAK2 dual inhibitors and methods for use thereof” (APTOSE BIOSCIENCES INC., priority 2016, dated 2022)

Legend:
BRD4-BD2 = BRD4-BD2 (Homo sapiens (Human), UniProt O60885); test: AlphaLisa bromodomain binding assay, BRD4-BD2; conditions: Table 6; read-out: BRD4(2) IC50
Text: (§1) An AlphaLisa assay was used to observe bromodomain binding and measure IC50s for the compounds disclosed herein. An AlphaLisa assay is a bead-based assay used to detect interactions between bromodomains and polyacetylated histone peptides. Donor and acceptor beads bound to target and ligand are brought into proximity by this protein-protein interaction.
(§2) Equipment Required • 1. […] Plate centrifuge • 3. Plate shaker • 4. […] Single channel and multi-channel pipettes • 6. Microplate reader (Pherastar)
(§3) Stock and Final Assay Concentrations (FAC) • 1. All reference and test compounds are made at a concentration of 10 mM in DMSO. Compounds are serially diluted in DMSO and a FAC starting from 10 μM to 10 point 3 fold serial dilutions is arrived. FAC of DMSO is 1%. • 2. Enzyme stock and FAC
(§4) Biotinylated substrate (Acetylated histone H4, biotinylated substrate—cat no. AS64989-025, Anaspec) stock and FAC
(§5) • 4. Acceptor and donor beads stock and FAC
(§6) Buffers • For the enzyme and substrate dilution following buffer is used (for 50 ml) • HEPES: 50 mM 2.5 ml • NaCl: 25 mM 1.25 ml • DTT: 10 mM 0.05 ml • BSA: 0.1% 0.05 g • MilliQ water: 45.7 ml • For dilution of acceptor and donor beads AlphaLISA 5× epigenetics Buffer Perkin Elmer (Cat: AL008C) is used at 1× concentration.
(§7) Procedure • 1. […] Tap the plate gently • 3. […] Cover with plate sealer • 5. […] Incubate the plate at room temperature for 10 minutes • 7. Add 10 μl of the substrate • 8. Cover with plate sealer • 9. […] Cover with plate sealer • 14. […] Cover with plate sealer • 18.
(§8) The percent inhibition is calculated in the excel analysis template and the IC50 values are subsequently determined using a sigmoidal dose-response curve (variable slope) using GraphPad Prism® 5 software.

JAK2 = JAK2 (Homo sapiens (Human), UniProt O60674); test: HTRF kinase assay, JAK2; type: biochemical; conditions: Table 6
BRDT-BD1 = BRDT-BD1 (Homo sapiens (Human), UniProt Q58F21); test: AlphaLisa bromodomain binding assay, BRDT-BD1; conditions: Table 6; read-out: BRDT(1) IC50
Text: as §1, §2, §3, §4, §5, §6, §7, §8

JAK1 = JAK1 (Homo sapiens (Human), UniProt P23458); test: HTRF kinase assay, JAK1; type: biochemical; conditions: Table 6
Text: (§9) A kinase assay with HTRF was used to observe JAK activity and calculate the IC50s of compounds disclosed herein. HTRF is an enzymatic assay used to determine the amount of phosphorylated peptide. FRET (Fluorescence Resonance Energy Transfer) is based on the transfer of energy between two fluorophores—a donor and an acceptor—when in close proximity. Molecular interactions between biomolecules can be assessed by coupling each partner with a fluorescent label and by detecting the level of energy transfer. The amount of phopshorylated peptide can be detected using a combination of a Eu 3+Cryptate labeled anti-phospho residue antibody, SA-XL665 and a biotinylated substrate. The signal is proportional to the concentration of phospho-residues.
(§10) Equipment Required • 1. […] Plate centrifuge • 3. Plate shaker • 4. […] Single channel and multi-channel pipettes • 6. Microplate reader (Pherastar)]
as §3, with “arrived. For Ruxolitinib the starting FAC is 1 μM.” for “arrived.”
(§11) • JAK-1: Invtirogen Cat: PR8767C • JAK-2: Invtirogen Cat: PR7820B • JAK-3: Invtirogen Cat: PR7507B • 3. Substrate (synthetic peptide-Biotinylated-N-terminal tag-[…] from Biopeptide) stock and FAC
(§12) • Adenosine 5′-triphosphate disodium salt hydrate: Sigma Cat: A26209 • 5. […] Buffers • Base buffer (for 50 ml)
(§13) • HTRF buffer: • 50 mM Tris-HCl, pH—7.5 • 100 mM NaCl • 0.1% BSA • 0.05% Tween20 • 0.5 mM EDTA
(§14) To a 384 well black-plate: • 1. Add 17 μL of the buffer to each well of the 384-well black plate • 2. […] Add 5 μl of the enzyme to each well of the plate • 4. Add 10 μl of the substrate and ATP mix to all the wells • 5. Cover with plate sealer • 6. […] Incubate at room temperature for 1 hour on shaker • 8. […] Add 37.5 μL of the HTRF mix to these wells. • 9. Incubate the plate at room temperature on shaker for 45 minutes. • 10.
as §8

BRD4-BD1 = BRD4-BD1 (Homo sapiens (Human), UniProt O60885); test: AlphaLisa bromodomain binding assay, BRD4-BD1; conditions: Table 6; read-out: BRD4(1) IC50
BRD2-BD1 = BRD2-BD1 (Homo sapiens (Human), UniProt P25440); test: AlphaLisa bromodomain binding assay, BRD2-BD1; conditions: Table 6; read-out: BRD2(1) IC50
Text: as §1, §2, §3, §4, §5, §6, §7, §8

JAK3 = JAK3 (Homo sapiens (Human), UniProt P52333); test: HTRF kinase assay, JAK3; type: biochemical; conditions: Table 6
Text: as §9, §10
as §3, with “arrived. For Ruxolitinib the starting FAC is 1 μM.” for “arrived.”
as §11, §12, §13, §14, §8

BRD3-BD1 = BRD3-BD1 (Homo sapiens (Human), UniProt Q15059); test: AlphaLisa bromodomain binding assay, BRD3-BD1; conditions: Table 6; read-out: BRD3(1) IC50
Text: as §1, §2, §3, §4, §5, §6, §7, §8

JAK2, sequence (O60674 whole entry): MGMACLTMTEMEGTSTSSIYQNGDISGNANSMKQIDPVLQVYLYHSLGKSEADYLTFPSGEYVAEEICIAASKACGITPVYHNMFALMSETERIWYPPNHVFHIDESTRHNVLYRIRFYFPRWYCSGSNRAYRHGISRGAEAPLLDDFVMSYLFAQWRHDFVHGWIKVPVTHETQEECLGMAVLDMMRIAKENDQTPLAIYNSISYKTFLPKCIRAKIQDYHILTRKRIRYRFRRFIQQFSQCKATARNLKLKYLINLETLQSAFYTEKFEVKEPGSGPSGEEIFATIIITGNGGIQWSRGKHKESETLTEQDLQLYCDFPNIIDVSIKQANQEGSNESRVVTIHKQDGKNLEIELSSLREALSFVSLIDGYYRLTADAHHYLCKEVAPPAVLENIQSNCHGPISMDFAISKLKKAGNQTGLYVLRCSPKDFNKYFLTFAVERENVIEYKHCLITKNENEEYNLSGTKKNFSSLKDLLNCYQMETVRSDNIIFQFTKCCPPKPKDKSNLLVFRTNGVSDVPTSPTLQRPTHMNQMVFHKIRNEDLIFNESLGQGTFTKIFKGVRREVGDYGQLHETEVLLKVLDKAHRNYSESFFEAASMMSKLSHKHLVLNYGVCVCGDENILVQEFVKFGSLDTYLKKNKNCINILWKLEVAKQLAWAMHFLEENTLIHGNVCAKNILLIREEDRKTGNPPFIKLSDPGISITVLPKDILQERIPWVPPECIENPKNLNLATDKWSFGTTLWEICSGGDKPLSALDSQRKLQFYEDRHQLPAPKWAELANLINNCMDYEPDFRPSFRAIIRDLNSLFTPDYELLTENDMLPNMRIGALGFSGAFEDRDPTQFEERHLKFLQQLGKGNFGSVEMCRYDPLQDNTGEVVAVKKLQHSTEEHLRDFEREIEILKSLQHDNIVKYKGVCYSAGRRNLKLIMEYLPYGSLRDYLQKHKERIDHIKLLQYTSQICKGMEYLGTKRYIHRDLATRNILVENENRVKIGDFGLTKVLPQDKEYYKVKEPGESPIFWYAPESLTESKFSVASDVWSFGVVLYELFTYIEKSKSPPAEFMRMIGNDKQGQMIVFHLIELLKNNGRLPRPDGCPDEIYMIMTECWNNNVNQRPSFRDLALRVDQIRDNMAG
BRD3-BD1, sequence (Q15059 34-140): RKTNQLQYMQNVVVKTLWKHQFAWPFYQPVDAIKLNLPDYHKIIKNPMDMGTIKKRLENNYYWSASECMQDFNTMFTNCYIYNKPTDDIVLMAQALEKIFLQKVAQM
JAK3, sequence (P52333 whole entry): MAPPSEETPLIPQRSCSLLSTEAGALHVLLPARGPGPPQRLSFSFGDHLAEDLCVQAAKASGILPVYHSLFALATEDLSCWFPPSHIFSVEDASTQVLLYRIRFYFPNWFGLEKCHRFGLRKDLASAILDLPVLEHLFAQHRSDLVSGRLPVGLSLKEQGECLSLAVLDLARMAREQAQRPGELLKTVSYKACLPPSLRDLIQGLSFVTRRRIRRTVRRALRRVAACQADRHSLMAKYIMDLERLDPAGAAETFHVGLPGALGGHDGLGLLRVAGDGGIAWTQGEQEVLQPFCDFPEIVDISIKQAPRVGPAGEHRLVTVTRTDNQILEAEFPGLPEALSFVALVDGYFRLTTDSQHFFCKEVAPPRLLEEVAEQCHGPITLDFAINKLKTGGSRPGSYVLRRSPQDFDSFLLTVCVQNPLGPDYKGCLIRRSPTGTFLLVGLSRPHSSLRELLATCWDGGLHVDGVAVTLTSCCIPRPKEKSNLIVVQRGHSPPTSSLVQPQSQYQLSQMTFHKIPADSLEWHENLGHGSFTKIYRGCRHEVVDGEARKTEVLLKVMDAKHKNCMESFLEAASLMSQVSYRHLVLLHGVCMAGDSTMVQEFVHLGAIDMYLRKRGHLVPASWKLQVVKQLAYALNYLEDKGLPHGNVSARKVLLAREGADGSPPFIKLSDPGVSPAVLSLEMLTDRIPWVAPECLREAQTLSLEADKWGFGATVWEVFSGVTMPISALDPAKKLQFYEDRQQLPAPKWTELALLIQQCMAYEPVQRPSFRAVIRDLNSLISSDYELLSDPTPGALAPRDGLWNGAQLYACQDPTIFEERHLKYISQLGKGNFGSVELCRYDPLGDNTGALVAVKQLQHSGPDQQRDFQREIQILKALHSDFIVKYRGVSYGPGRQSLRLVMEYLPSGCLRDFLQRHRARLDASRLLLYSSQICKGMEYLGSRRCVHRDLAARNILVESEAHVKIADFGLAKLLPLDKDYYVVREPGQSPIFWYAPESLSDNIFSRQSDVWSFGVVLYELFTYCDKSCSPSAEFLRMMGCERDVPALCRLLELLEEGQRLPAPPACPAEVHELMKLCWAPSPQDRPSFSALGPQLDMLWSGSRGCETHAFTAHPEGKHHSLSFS
BRD2-BD1, sequence (P25440 74-180): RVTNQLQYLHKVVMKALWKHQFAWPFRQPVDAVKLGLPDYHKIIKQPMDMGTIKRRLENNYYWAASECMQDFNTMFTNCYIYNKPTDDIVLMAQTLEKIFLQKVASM
JAK1, sequence (P23458 whole entry): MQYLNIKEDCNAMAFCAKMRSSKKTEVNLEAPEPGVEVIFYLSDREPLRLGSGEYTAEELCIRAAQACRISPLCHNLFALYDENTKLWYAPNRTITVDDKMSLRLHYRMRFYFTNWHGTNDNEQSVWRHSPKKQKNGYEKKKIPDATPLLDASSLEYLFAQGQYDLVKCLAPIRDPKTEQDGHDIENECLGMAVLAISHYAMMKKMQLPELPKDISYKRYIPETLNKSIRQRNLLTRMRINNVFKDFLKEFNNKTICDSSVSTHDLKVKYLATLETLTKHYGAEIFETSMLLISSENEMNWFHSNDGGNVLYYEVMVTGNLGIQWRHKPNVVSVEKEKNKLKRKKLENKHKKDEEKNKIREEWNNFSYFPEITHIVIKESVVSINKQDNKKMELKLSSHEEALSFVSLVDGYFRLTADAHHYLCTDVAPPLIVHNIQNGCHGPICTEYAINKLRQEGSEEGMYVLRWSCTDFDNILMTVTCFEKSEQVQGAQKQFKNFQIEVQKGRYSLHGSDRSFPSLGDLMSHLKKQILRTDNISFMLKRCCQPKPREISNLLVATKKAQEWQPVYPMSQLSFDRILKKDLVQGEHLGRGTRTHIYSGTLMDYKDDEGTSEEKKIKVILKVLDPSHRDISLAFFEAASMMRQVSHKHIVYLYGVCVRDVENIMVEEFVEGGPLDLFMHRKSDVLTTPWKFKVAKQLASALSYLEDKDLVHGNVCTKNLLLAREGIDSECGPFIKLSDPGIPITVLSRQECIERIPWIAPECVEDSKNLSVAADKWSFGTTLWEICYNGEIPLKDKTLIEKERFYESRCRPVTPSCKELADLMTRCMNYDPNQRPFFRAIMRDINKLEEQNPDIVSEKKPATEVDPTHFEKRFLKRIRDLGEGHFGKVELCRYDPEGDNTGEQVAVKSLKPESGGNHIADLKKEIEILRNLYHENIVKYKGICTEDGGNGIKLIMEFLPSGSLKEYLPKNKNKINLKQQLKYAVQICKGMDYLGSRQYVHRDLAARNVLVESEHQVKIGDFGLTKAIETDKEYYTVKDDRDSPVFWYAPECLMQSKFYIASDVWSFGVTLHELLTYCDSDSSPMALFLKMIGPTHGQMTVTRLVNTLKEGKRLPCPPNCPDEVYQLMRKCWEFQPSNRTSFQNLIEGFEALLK

Row | IC50 (BRD4-BD2) | IC50 (JAK2) | IC50 (BRDT-BD1) | IC50 (JAK1) | IC50 (BRD4-BD1) | IC50 (BRD2-BD1) | IC50 (JAK3) | IC50 (BRD3-BD1) | Structure (SMILES)
1 | 85 nM | 40 nM | 185 nM | 3700 nM | 79 nM | 235 nM | 206 nM | 81 nM | CC(C)(C)S(=O)(=O)Nc1cc(-n2ccc3cnc(Nc4cc(F)c5c(c4)CC4CNCCN54)nc32)ccc1F (stereo not shown) [drawing 443]
2 | 491 nM | 18.9 nM | 1000 nM | 1100 nM | 378 nM | 1150 nM | 338 nM | 248 nM | CN1CCN(c2ccc(Nc3ncc4ccn(-c5cccc(NS(=O)(=O)C(C)(C)C)c5)c4n3)cc2C#N)CC1
3 | 67 nM | 50 nM | 268 nM | 178 nM | 205 nM | 576 nM | 253 nM | 117 nM | CNCCNC(=O)Cc1ccc(Nc2ncc3ccn(-c4cccc(NS(=O)(=O)C(C)(C)C)c4)c3n2)cc1
4 | 574 nM | 2 nM | 1210 nM | 188 nM | 677 nM | 2960 nM | 15 nM | 914 nM | O=S(=O)(Nc1cccc(-n2ccc3cnc(Nc4ccc(N5CCNCC5)cc4)nc32)c1)C1CC1 [drawing 296]
5 | 54 nM | 52 nM | 268 nM | 992 nM | 125 nM | 473 nM | 403 nM | 158 nM | CC(C)(C)S(=O)(=O)Nc1cccc(-n2ccc3cnc(Nc4ccc(C(=O)N5CCNCC5)c(F)c4)nc32)c1 [drawing 462]
6 | 67.5 nM | 35 nM | 182 nM | 972 nM | 128 nM | 490 nM | 105 nM | 109 nM | CN1CCN(c2ccc(Nc3ncc4ccn(-c5ccc(F)c(NS(=O)(=O)C(C)(C)C)c5)c4n3)cc2)CC1 [drawing 295]
7 | 62 nM | 7.3 nM | 406 nM | 400 nM | 173 nM | 632 nM | 81 nM | 164 nM | CN(C)C1CCN(c2ccc(Nc3ncc4ccn(-c5cccc(NS(=O)(=O)C(C)(C)C)c5)c4n3)cc2)CC1 [drawing 317]
8 | 92 nM | 10 nM | 223 nM | 1200 nM | 192 nM | 670 nM | 82 nM | 154 nM | CNC1CCN(c2ccc(Nc3ncc4scc(-c5ccc(F)c(NS(=O)(=O)C(C)(C)C)c5)c4n3)cc2F)CC1 [drawing 458]
9 | 203 nM | 11 nM | 329 nM | 734 nM | 233 nM | 605 nM | 60 nM | 196 nM | CN(C)C1CCN(c2ccc(Nc3ncc4scc(-c5ccc(F)c(NS(=O)(=O)C6(C)CC6)c5)c4n3)cc2F)CC1
10 | 131 nM | 2 nM | 281 nM | 44 nM | 109 nM | 489 nM | 18 nM | 100 nM | CC(C)(C)S(=O)(=O)Nc1cccc(-c2csc3cnc(Nc4ccc5c(c4)CCN4CCNCC54)nc23)c1 (stereo not shown)
11 | 91 nM | 8 nM | 177 nM | 927 nM | 108 nM | 292 nM | 97 nM | 110 nM | CN(C)C1CCN(c2ccc(Nc3ncc4scc(-c5ccc(F)c(NS(=O)(=O)C(C)(C)C)c5)c4n3)cc2F)CC1
